The text below walks through data of US20090181929A1, “ORGANIC COMPOUNDS” (priority 2006, published 2009).

One may read the IC50 as the concentration needed to halve the response being measured. The low end stands for greater potency, the high end for weaker potency.

The test concerns the target T1, CETP (Homo sapiens, UniProt P11597).
T1 construct: Human plasma (50 μL), assay buffer (35 μL) and test compound; tissue New Drug Development Research Center, Inc; host or cells: human EDTA plasma from healthy men
T1 sequence (P11597 18-493): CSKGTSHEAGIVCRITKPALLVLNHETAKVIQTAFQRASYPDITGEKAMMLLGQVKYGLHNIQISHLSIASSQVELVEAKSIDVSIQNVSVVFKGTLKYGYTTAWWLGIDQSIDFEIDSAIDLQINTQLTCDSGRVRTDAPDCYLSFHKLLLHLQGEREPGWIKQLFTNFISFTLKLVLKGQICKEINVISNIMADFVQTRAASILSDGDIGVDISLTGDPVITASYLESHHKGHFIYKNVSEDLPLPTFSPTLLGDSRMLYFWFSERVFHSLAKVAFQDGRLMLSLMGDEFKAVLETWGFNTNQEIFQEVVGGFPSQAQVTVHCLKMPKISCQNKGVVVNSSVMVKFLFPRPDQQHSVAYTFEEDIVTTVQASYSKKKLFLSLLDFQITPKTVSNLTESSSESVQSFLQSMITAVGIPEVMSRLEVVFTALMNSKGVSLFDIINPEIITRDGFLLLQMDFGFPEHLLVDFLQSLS
In words: in vitro CETP activity in human plasma (BODIPY-CE donor microemulsion, fluorescence). In kind it is biochemical. As to the method: For purposes of detecting the in vitro and in vivo CETP activity, human pro-apolipoprotein AI (pro-apoAI) and donor microemulsion are prepared as follows. The cDNA of human pro-apoAI (NCBI accession number: NM_000039) is cloned from human liver Quick-Clone™ cDNA (Clontech, CA) and inserted to a pET28a vector (Novagen, Germany) for bacterial expression. Expressed protein as a fusion protein with 6×His-tag at N-terminus in BL-21 Gold (DE3) (Strategene, CA) is purified using HiTrap Chelating (GE Healthcare, CT). Pro-apoAI containing microemulsion as a donor particle is prepared following previous reports (J. Biol. Chem., 280:14918-22). Glyceryl trioleate (62.5 ng, Sigma, Mo.), 3-sn-phosphatidylcholine (583 ng, Wako Pure Chemical Industries, Japan), and cholesteryl BODIPY® FL C12 (250 ng, Invitrogen, CA) are dissolved in 1 mL of chloroform. The solution is evaporated, then residual solvent is removed in vacuum for more than 1 hr. The dried lipid mixture is dissolved in 500 μL of the assay buffer (50 mM Tris-HCl (pH7.4) containing 150 mM NaCl and 2 mM EDTA) and sonicated at 50° C. with a microtip (MICROSON™ ULTRASONIC CELL DISRUPTOR, Misonix, Farmingdale, N.Y.) at output power 006 for 2 min. After sonication, the solution is cooled to 40° C., added to 100 μg of human pro-apoAI, and sonicated at output power 004 for 5 min at 40° C. The solution, BODIPY-CE microemulsion as a donor molecule is stored at 4° C. after filtration through a 0.45 μm PVDF filter.
For purposes of detecting in vitro CETP activity, human EDTA plasma samples from healthy men are purchased from New Drug Development Research Center, Inc. Donor solution is prepared by a dilution of donor microemulsion with assay buffer. Human plasma (50 μL), assay buffer (35 μL) and test compound dissolved in dimethylsulfoxide (1 μL) are added to each well of 96 well half area black flat bottom plate. The reaction is started by the addition of donor solution (14 μL) into each well. Fluorescence intensities are measured every 30 min at 37° C. with excitation wave length of 485 nm and emission wavelength of 535 nm. The CETP activity (Fl/min) is defined as the changes of fluorescence intensity from 30 to 90 min. The IC50 value is obtained by the logistic equation (Y=Bottom+(Top-Bottom)/(1+(x/IC50)̂Hill slope) using Origin software, version 7.5 SR3.

`CCCCN(C)c1cnc(N(CC)CC2CCCC2)c(CN(Cc2cc(C(F)(F)F)cc(C(F)(F)F)c2)c2nnn(C)n2)c1` [Compound 7, 3-{[(3,5-Bis-trifluoromethyl-benzyl)-(2-methyl-2H-tetrazol-5-yl)-amino]-methyl}-N*5*-butyl-N*2*-cyclopentylmethyl-N*2*-ethyl-N*5*-methyl-pyridine-2,5-diamine] showed an IC50 of 720 nM. In other words, the sub-micromolar range.

Turning to `CCN(CC1CCCC1)c1ncc(C)cc1CN(Cc1cc(C(F)(F)F)cc(C(F)(F)F)c1)c1nnn(C)n1` [Compound 5, (3-{[(3,5-Bis-trifluoromethyl-benzyl)-(2-methyl-2H-tetrazol-5-yl)-amino]-methyl}-5-methyl-pyridin-2-yl)-cyclopentylmethyl-ethyl-amine], half-maximal inhibition (IC50) required 300 nM.

`CCN(CC1CCCC1)c1ncc(N2CCC2)cc1CN(Cc1cc(C(F)(F)F)cc(C(F)(F)F)c1)c1nnn(C)n1` [Compound 1, (5-Azetidin-1-yl-3-{[(3,5-bis-trifluoromethyl-benzyl)-(2-methyl-2H-tetrazol-5-yl)-amino]-methyl}-pyridin-2-yl)-cyclopentylmethyl-ethyl-amine]: the midpoint of inhibition, the IC50, lay at 260 nM. This IC50 and that of the compound before are within 1.5-fold of each other.

`CCN(CC1CCCC1)c1ncc(I)cc1CN(Cc1cc(C(F)(F)F)cc(C(F)(F)F)c1)c1nnn(C)n1` [Compound 6, (3-{[(3,5-Bis-trifluoromethyl-benzyl)-(2-methyl-2H-tetrazol-5-yl)-amino]-methyl}-5-iodo-pyridin-2-yl)-cyclopentylmethyl-ethyl-amine] displayed an IC50 of 230 nM.

The compound `CCN(CC1CCCC1)c1ncc([N+](=O)[O-])cc1CN(Cc1cc(C(F)(F)F)cc(C(F)(F)F)c1)c1nnn(C)n1` [Compound 8, (3-{[(3,5-Bis-trifluoromethyl-benzyl)-(2-methyl-2H-tetrazol-5-yl)-amino]-methyl}-5-nitro-pyridin-2-yl)-cyclopentylmethyl-ethyl-amine] had an IC50 of 630 nM.

As to `CCN(CC1CCCC1)c1ncc(N(C)C(C)=O)cc1CN(Cc1cc(C(F)(F)F)cc(C(F)(F)F)c1)c1nnn(C)n1` [Compound 2, N-[5-{[(3,5-Bis-trifluoromethyl-benzyl)-(2-methyl-2H-tetrazol-5-yl)-amino]-methyl}-6-(cyclopentylmethyl-ethyl-amino)-pyridin-3-yl]-N-methyl-acetamide], it took 370 nM to reach half-maximal inhibition (IC50).

The compound `CCN(CC1CCCC1)c1ncc(SC)cc1CN(Cc1cc(C(F)(F)F)cc(C(F)(F)F)c1)c1nnn(C)n1` [Compound 3, (3-{[(3,5-Bis-trifluoromethyl-benzyl)-(2-methyl-2H-tetrazol-5-yl)-amino]-methyl}-5-methylsulfanyl-pyridin-2-yl)-cyclopentylmethyl-ethyl-amine] returned an IC50 of 140 nM.

With `CCN(CC1CCCC1)c1nc(C)c(Br)cc1CN(Cc1cc(C(F)(F)F)cc(C(F)(F)F)c1)c1nnn(C)n1` [Compound 4, (3-{[(3,5-Bis-trifluoromethyl-benzyl)-(2-methyl-2H-tetrazol-5-yl)-amino]-methyl}-5-bromo-6-methyl-pyridin-2-yl)-cyclopentylmethyl-ethyl-amine], half-maximal inhibition (IC50) required 110 nM. This IC50 and that of the compound before are within 1.5-fold of each other.
